Legend:
right atrial muscle = assay: Test Method 1: enhancing rate of the pulsation of the right atrial muscle extirpated from a guinea pig; type: cell-based; settings: for enhancing rate of the pulsation of the right atrial muscle (in parentheses under EC20) / enhancing rate of the pulsation of the right atrial muscle (in parentheses under EC100) / enhancing rate of the pulsation of the right atrial muscle (in parentheses under EC50): minus values: pulsation is decreased
Experimental: (§1) The drug according to the present invention was evaluated with reference to the physiological activities by means of a method using an atrial muscle extirpated from a guinea pig.
(§2) Male guinea pigs having a body weight of 300-500 g were made swooned by striking his head and were bleeded to death. The heart was extirpated and the right and left atrial muscles were cut off. The tops of each atrial muscle were fixed with cerrefines. The muscle was suspended into an organ-bath in which a Krebs-Henseleit solution (at 32° C.) was filled, and a 95% O2 -5% CO2 gas was flown through the bath. The left atrial muscle was stimulated electrically at a frequency of 1 Hz to stabilize the contracting force of the left atrial muscle. Then, the compounds according to the present invention represented by the general formulae were added to the organ-bath. As for the right atrial muscle, after the pulsation was stabilized, the compounds according to the present invention were added in the organ-bath in the same manner as described above.
(§3) The compounds according to the present invention represented by the aforementioned general formulae enhanced the left atrial muscle contracting force dependent on their concentrations. The drug concentrations for enhancing the left atrial muscle contracting force to the levels of 20%, 50% and 100%, respectively are listed in Table 2. EC20, EC50 and EC100 indicate the molar concentration for enhancing the left atrial muscle contracting force to the levels of 20%, 50% and 100%, respectively. The enhancing rates of the pulsation of the right atrial muscle are also listed within parentheses. The minus values in parentheses indicate that the pulsation of the right atrial muscle is decreased.
(§4) As a control drug, theophylline ([…].

heart muscle = assay: Test Method 2: effect on heart muscle contracting force in an anesthetized dog (LV-dP/dtmax); type: in vivo; settings: anesthetized Beagle dogs, 1 mg/kg through a cannula inserted into vein; increasing rate, value at initiation set as 100%
Experimental: The compounds according to the present invention was evaluated with reference to the effect on heart muscle contracting force by means of a method using an anesthetized dog.
Beagle dogs having a body weight of 8-11 kg were used for the experiment. They were anesthetized by intraperitoneal administration of a sodium salt of pentobarbital (35 mg/kg) and, if necessary, of additional small amount of the sodium salt of pentobarbital. Anesthesia was maintained by administering the sodium salt of pentobarbital in a dose of 5 mg/kg/hour through a cannula inserted within a vein. Breathing was performed through a cannula inserted within a trachea with a respirator. The maximum accelerations of contracting the […] (LV-dp/dtmax) were measured with a pressure transducer inserted into the left ventricle. Compounds tested was administered in a dose of 1 mg/kg through a cannula inserted into the other vein. The parameters were expressed as the increasing rate (Δ%) after dosing of the drug with the value at the initiation when the drug was administered being set as 100%.

left atrial muscle = assay: Test Method 1: enhancement of contracting force of left atrial muscle extirpated from a guinea pig (electrically stimulated at 1 Hz); type: cell-based; settings: Cavia porcellus, Krebs-Henseleit solution 32° C.; for EC20: read-out: EC20 (molar concentration for enhancing the left atrial muscle contracting force to the level of 20%); for EC50: read-out: EC50 (molar concentration for enhancing the left atrial muscle contracting force to the level of 50%); for EC100: read-out: EC100 (molar concentration for enhancing the left atrial muscle contracting force to the level of 100%)
Experimental: as §1, §2, §3, §4

SMILES	enhancing rate of the pulsation of the right atrial muscle (in parentheses under EC50) (right atrial muscle)	EC50 (left atrial muscle)	enhancing rate of the pulsation of the right atrial muscle (in parentheses under EC20) (right atrial muscle)	enhancing rate of the pulsation of the right atrial muscle (in parentheses under EC100) (right atrial muscle)	ΔLV-dP/dtmax (%) (heart muscle)	EC20 (left atrial muscle)	EC100 (left atrial muscle)	effect on heart rate (in words) (right atrial muscle; from the results of Table 2)
COc1cc(C)c2[nH]ccc(=O)c2c1 [Compound 20, 6-methoxy-8-methyl-4(1H)-quinolone]	1.8%	58.9 µM	0.2%	5.6%	41.7%	12.4 µM	299 µM	–
COc1cc2[nH]c(C3CC3)cc(=O)c2cc1OC [Compound 95, 2-cyclopropyl-6,7-dimethoxy-4(1H)-quinolone]	16.3%	18.2 µM	2.8%	–	46.9%	1.78 µM	94.4 µM	–
Cn1c(=O)c2[nH]cnc2n(C)c1=O [Theophylline, theophylline, reference compound]	20.0%	302 µM	7.3%	–	18.8%	72.4 µM	–	increased significantly
CCOC(=O)c1cn(CC)c2c(OCC)cc(OC)cc2c1=O [Compound 78, 8-ethoxy-3-ethoxycarbonyl-1-ethyl-6-methoxy-4(1H)-quinolone]	-25.0%	75 µM	-6.2%	–	–	8.41 µM	–	–
CCOc1cc2[nH]c(C3CC3)cc(=O)c2cc1OC [Compound 98, 2-cyclopropyl-7-ethoxy-6-methoxy-4(1H)-quinolone]	–	36.7 µM	–	–	57.1%	5.96 µM	–	–
C=CCn1c(-c2cccs2)cc(=O)c2cc(OC)c(OCC)cc21 [Compound 116, 1-allyl-7-ethoxy-6-methoxy-2-(2-thienyl)-4(1H)-quinolone]	–	60.3 µM	-10.0%	–	–	15.3 µM	–	–
COc1ccc2[nH]ccc(=O)c2c1O [Compound 1, 5-hydroxy-6-methoxy-4(1H)-quinolone]	3.6%	398 µM	1.2%	6.8%	–	199 µM	708 µM	–
CCCCOc1cc2[nH]ccc(=O)c2cc1OC [Compound 52, 7-n-butoxy-6-methoxy-4(1H)-quinolone]	-1.2%	115 µM	-1.0%	-20.0%	–	37.6 µM	422 µM	–
CCOc1cc2[nH]ccc(=O)c2cc1OC [Compound 62, 7-ethoxy-6-methoxy-4(1H)-quinolone]	–	30 µM	–	–	60.0%	4.52 µM	75 µM	–
CCOC(=O)c1cn(CC)c2c(OC)cc([S+](C)[O-])cc2c1=O (stereo not shown) [Compound 39, 3-ethoxycarbonyl-1-ethyl-8-methoxy-6-methylsulfinyl-4(1H)-quinolone]	-12.1%	67.6 µM	-7.7%	–	–	13.5 µM	–	–
CCOC(=O)c1cn(CC)c2cc(OCC)c(OC)cc2c1=O [Compound 34, 7-ethoxy-3-ethoxycarbonyl-1-ethyl-6-methoxy-4(1H)-quinolone]	-8.5%	100 µM	-3.2%	–	–	6.46 µM	–	–
CCOC(=O)c1c[nH]c2c(C)cc(N(CC)CC)cc2c1=O [Compound 84, 6-diethylamino-3-ethoxycarbonyl-8-methyl-4(1H)-quinolone]	-6.5%	57.5 µM	-3.0%	-11.5%	–	35.9 µM	126 µM	–
CCn1ccc(=O)c2cc(/C=C/c3cc(OC)ccc3OC)ccc21 [Compound 111, 6-[2-trans-(2,5-dimethoxyphenyl)vinyl]-1-ethyl-4(1H)-quinolone]	-27.0%	97.7 µM	-9.8%	–	–	18.2 µM	–	–

Second part, led by results:

enhancing rate of the pulsation of the right atrial muscle (in parentheses under EC50) (right atrial muscle)	EC50 (left atrial muscle)	SMILES	enhancing rate of the pulsation of the right atrial muscle (in parentheses under EC20) (right atrial muscle)	enhancing rate of the pulsation of the right atrial muscle (in parentheses under EC100) (right atrial muscle)	ΔLV-dP/dtmax (%) (heart muscle)	EC20 (left atrial muscle)	EC100 (left atrial muscle)	effect on heart rate (in words) (right atrial muscle; from the results of Table 2)
16.8%	70.8 µM	COc1cc2c(=O)cc[nH]c2cc1OC(C)C [Compound 51, 7-i-propoxy-6-methoxy-4(1H)-quinolone]	6.2%	16.5%	41.2%	20 µM	1000 µM	–
-2.7%	68.4 µM	CCn1ccc(=O)c2cc(C)ccc21 [Compound 59, 1-ethyl-6-methyl-4(1H)-quinolone]	-2.0%	-3.0%	–	12.3 µM	279 µM	–
16.0%	119 µM	COc1ccc(-c2ccccc2)c2c(=O)c(C(=O)O)c[nH]c12 [Compound 91, 3-carboxyl-8-methoxy-5-phenyl-4(1H)-quinolone]	2.3%	–	–	13.3 µM	750 µM	–
2.2%	871 µM	COc1c(O)ccc2[nH]ccc(=O)c12 [Compound 2, 6-hydroxy-5-methoxy-4(1H)-quinolone]	0.6%	–	–	490 µM	–	–
3.6%	25.7 µM	CCOC(=O)c1c[nH]c2c(OC)ccc(C)c2c1=O [Compound 36, 3-ethoxycarbonyl-8-methoxy-5-methyl-4(1H)-quinolone]	0.0%	8.9%	–	3.54 µM	77.6 µM	–
-4.0%	53.1 µM	CCOc1cc2c(cc1OC)c(=O)cc(-c1cccnc1)n2CC [Compound 114, 7-ethoxy-1-ethyl-6-methoxy-2-(3-pyridyl)-4(1H)-quinolone]	-1.8%	-1.3%	–	6.46 µM	1000 µM	–
-0.8%	9.77 µM	CCOC(=O)c1cn(CC)c2ccc(CC)cc2c1=O [Compound 85, 1,6-diethyl-3-ethoxycarbonyl-4(1H)-quinolone]	-1.2%	–	25.0%	1.58 µM	–	–
6.0%	37.6 µM	CCOc1cc2c(cc1OC)c(=O)c(C(=O)O)cn2C [Compound 92, 3-carboxyl-7-ethoxy-6-methoxy-1-methyl-4(1H)-quinolone]	1.0%	–	–	4.73 µM	–	–
-2.2%	7.5 µM	CCOC(=O)c1c[nH]c2c(OC)ccc(-c3ccccc3)c2c1=O [Compound 37, 3-ethoxycarbonyl-8-methoxy-5-phenyl-4(1H)-quinolone]	-1.3%	-5.0%	–	1.58 µM	37.2 µM	–

From patent US5081121A, “4(1H)-quinolone derivatives” (priority 1988, dated 1992)
